Source: patent US4835160A, “Derivatives of pyridoindole, having anti-tumor properties” (Sanofi, priority 1986, dated 1989)
Where “and” joins values, the source holds several entries; their conditions need not be identical. Equal entries are not always repeated. Structures can show the parent of a compound that is named as a salt. Where two headings read alike, the source gives them in different places.

Tests used:
[1] = test system: leukemia tumour line L 1210; assay: In vitro cytotoxic activity on leukemia tumour line L 1210; assay type: cell-based; settings: L 1210, 48 hours contact, 37° C., read-out: I D 50 (concentration which inhibits the proliferation of the cells by 50%)
Experimental: (1) In vitro: ([…] et al., Chem. Biol. Interaction, 1979, 25, 45-58). The cytotoxic activity of the compounds of the invention has been evaluated by in vitro tests. These tests consist of adding increasing concentrations of the compound under test to a cellular culture of the leukemia tumour line L 1210 in an exponential phase of growth. The cellules are incubated at 37° C. in a CO2 incubator and counted every 24 hours. The calculation of the I D 50 (concentration of the product, expressed in 1^-1 micromole, which inhibits the proliferation of the cells by 50%) is made after 48 hours contact.

leukemia P388 = assay: Test for leukemia P388, IP/IP, D1; assay type: in vivo, CDF1 hybrid mice; settings: 200 mg/kg IP
Experimental: (§1) The antitumour activity was tested in vivo on various tumours inoculated in various ways according to the following general protocol:
(§2) All the male or female mice are inoculated on day D0 with a known quantity of viable tumour cells for ascitic tumours or with a known tumour fragment for solid tumours.
(§3) They are then distributed into various groups. Each group, corresponding to the animals treated by the product under test, is made up of 10 mice. The product under test is dissolved in distilled water and it is administered n times (Dx-Dy), n, y, and x varying according to the protocol chosen, at the rate of 0.1 ml of solution per 10 g by weight of mice treated and at specific doses for each protocol.
(§4) The "negative control" group, corresponding to the animals which are not treated by the product, contains 2√N animals, N being equal to or greater than the total number of mice treated by the product in the same experiment.
(§5) Finally, the tests can also be carried out at the same time as the study of a group called "positive control", of ten animals, which is treated by a molecule, known for its antitumour activity and which can vary according to the protocol chosen, in the same conditions as the groups treated by the product under test.
(§6) The antitumour activity is evaluated, in the case of ascitic tumours, by considering the increase in the survival time of the animals treated in comparison to that of the animals in the "negative control" group, according to the formula: [formula]
(§7) Also, a product is considered as toxic at the dose studied when this T/C value is equal to or less than 85%. In addition, a product is also considered as toxic at the dose studied when the weight variation, expressed in grams and calculated by the formula: […]
(§8) The tests are carried out with CDF1 hybrid mice inoculated by intraperitoneal route with 10^6 leukemia cells from the P 388 line. The compound under test is administered for 5 successive days (D1-D5) by intraperitoneal route. The positive control for the test is 5-fluorouracile which is administered in the same conditions. The number of surviving animals is evaluated on day D30.
(b) Test for Leukemia P388, IP/IP, D1 (GERAN et al. Cancer chemother., 1972, 2, 07-57).
The test is carried out according to the preceding protocol, the compound under test being administered only on day D1.

leukemia P 388 = assay: Test of leukemia P 388; IP/IP, D1-5; assay type: in vivo, CDF1 hybrid mice; settings: D1-D5; for Number of survivors: day D30; for T/C %: survival time
Experimental: (2) In vivo: (GERAN et al., Cancer Chemother., 1972, 2, 07-57):
as §1, §2, §3, §4, §5, §6
The criterion for activity varies according to the protocol.
as §7
"Average weight of the group measured on day 5--Average weight of the same group measured on day 1"
is equal to or less than 4 g.
(a) Test of lelukemia P 388; IP/IP, D1-5 (GERAN et al., Cancer Chemother., 1972, 2, 07-57).
as §8

leukemia L 1210 = assay: Test for leukemia L 1210, IP/IP, D1-D5; assay type: in vivo, CDF1 hybrid mice; settings: 20 mg/kg IP
Experimental: as §1, §2, §3, §4, §5, §6, §7
(c) Test for leukemia L 1210, IP/IP, D-5 (GERAN et al., Cancer cheomother.,1972, 2, 07-57).
as §8, with “10^5” for “10^6”, “L 1210” for “P 388”, “5” for “5 successive”, “5-fluorouracile” for “5-fluorouracile which is”, “D60.” for “D30.”

melanoma B 16 = assay: Test for melanoma B 16; assay type: in vivo, BDF1 hybrid mice; settings: 0.5 mg/kg IP, D1-D9
Experimental: as §1, §2, §3, §4, §5, §6, §7
(d) Test for melanoma B 16 (GERAN et al., Cancer Chemother., 1972, 2, 07-75).
The tests are carried out with BDF1 hybrid mice inoculated by intraperitoneal route with 0.5 ml of a homogenate of melanoma B 16 made up from 1 g of tumour in 10 ml of physiological serum. The compound under test is administered for 9 days (D1-D9) by intraperitoneal route. The positive control for the test is Cis-Platine administered in the same conditions. The number of surviving animals is evaluated on day D60.

reticulosarcoma M5-M5076 = assay: Test for reticulosarcoma M5-M5076; assay type: in vivo, BDF1 hybrid mice; settings: 160 mg/kg IP, D1,5,9,13,17
Experimental: as §1, §2, §3, §4, §5, §6, §7
The tests are carried out with BDF1 hybrid mice inoculated by intraperitoneal route with 10^6 cells of the M5-M5076 line. The compound under test is administered 5 times successively in sequence (D1,5,9,13,17) by intraperitoneal route. The positive control for the test is cyclophosphamide administered in the same conditions. The number of surviving animals is evaluated on day D75.

Structure (SMILES): COc1ccc2c(c1)c1c(NCC(C)CN(C)C)ncc(C)c1n2C (racemic) [Derivative No. 20, 4,5-dimethyl-1-(3-dimethylamino-2-methylpropylamino)-8-methoxy-5pyrido[4,3-b]i dihydrochloride]
- IC50 ([1]; Mus musculus, L1210, 48 h): 1 µM

Structure (SMILES): Cc1cnc(NCC(C)CN(C)C)c2c3cc(O)ccc3n(C)c12 (racemic) [Derivative No. 21, 4,5-dimethyl-1-(3-dimethylamino-2-methylpropylamino)-8-hydroxy-5H-pyrido[4,3-b]dihydrochloride]
- IC50 ([1]; Mus musculus, L1210, 48 h): 0.01 µM

Structure (SMILES): O=c1[nH]cc(F)c(=O)[nH]1 [5-Fluorouracile, 5-fluorouracile, reference compound]
- Median day of survival (leukemia P388): 19.0 days
- Variation by weight (leukemia P388): -3.2 g
- Number of survivors (leukemia P388; day D30): 0/10
- T/C % (leukemia P388; survival time): 173%
- Median day of survival (leukemia P 388; 20 mg/kg IP): 20.1 days and 18.9 days and 19 days and 17.75 days and 16.7 days and 18.8 days and 20 days and 17 days
- Number of survivors (leukemia P 388; 20 mg/kg IP): 0/10
- T/C % (leukemia P 388; 20 mg/kg IP): 166% and 164% and 168% and 160% and 147% and 173% and 171% and 154%
- Median day of survival (leukemia L 1210): 16.0 days
- Variation by weight (leukemia L 1210): -0.5 g
- Number of survivors (leukemia L 1210; day D60): 0/10
- T/C % (leukemia L 1210; survival time): 182%

Structure (SMILES): [NH2][Pt]([NH2])([Cl])[Cl] [Cis-Platine, reference compound]
- Median day of survival (melanoma B 16): 36 days and 30.0 days and 38.75 days
- Variation by weight (melanoma B 16): -0.6 g
- Number of survivors (melanoma B 16; day D60): 0/10
- T/C % (melanoma B 16; survival time): 131% and 126% and 141%

Structure (SMILES): O=P1(N(CCCl)CCCl)NCCCO1 (stereo not shown) [Cyclopnospnamide, cyclophosphamide, reference compound]
- Median day of survival (reticulosarcoma M5-M5076): > 60 days and 57.0 days
- Number of survivors (reticulosarcoma M5-M5076; day D75): 9/10 and 0/10
- T/C % (reticulosarcoma M5-M5076; survival time): > 239% and 219% and > 234%

Structure (SMILES): CCN(CC)CCCNc1ncc(C)c2[nH]c3ccccc3c12 [Derivative 1]
- IC50 ([1]; Mus musculus, L1210, 48 h): 0.2 µM

Structure (SMILES): Cc1cnc(NCCNCCO)c2c1[nH]c1ccccc12 [Derivative 3]
- IC50 ([1]; Mus musculus, L1210, 48 h): 1.14 µM

Structure (SMILES): Cc1cnc(NCCCN(C)C)c2c1[nH]c1ccccc12 [Derivative No. 2, 1-(3-dimethylaminopropylamino)-4-methyl-5H-pyrido-[4,3-b]indole]
- IC50 ([1]; Mus musculus, L1210, 48 h): 0.16 µM

Structure (SMILES): CCNCCCNc1ncc(C)c2[nH]c3ccc(OC)cc3c12 [Derivative No. 5, 1-(3-ethylaminopropylamino)-8-methoxy-4-methyl-5H-pyrido[4,3-b]indole]
- IC50 ([1]; Mus musculus, L1210, 48 h): 1.2 µM

Structure (SMILES): CCN(CC)CCCNc1ncc(C)c2c1c1cc(OC)ccc1n2C [Derivative No. 6, 1-(3-diethylaminopropylamino)-4,5-dimethyl-8-methoxy-5H-pyrido[4,3-b]indole]
- IC50 ([1]; Mus musculus, L1210, 48 h): 0.1 µM

Structure (SMILES): CCN(CC)CCCNc1ncc(C)c2[nH]c3ccc(O)cc3c12 [Derivative No. 8, 1-(diethylaminopropylamino)-8-hydroxy-4-methyl-5H-pyrido[4,3-b]indole]
- Median day of survival (leukemia P 388; 0.625 mg/kg IP): 15.1 days
- Variation by weight (leukemia P 388; 0.625 mg/kg IP): -0.5 g
- Number of survivors (leukemia P 388; 0.625 mg/kg IP): 0/10
- T/C % (leukemia P 388; 0.625 mg/kg IP): 136%
- Median day of survival (leukemia P 388; 1.25 mg/kg IP): 15.7 days
- Variation by weight (g) (leukemia P 388; 1.25 mg/kg IP): +0.6 g
- Number of survivors (leukemia P 388; 1.25 mg/kg IP): 0/10
- T/C % (leukemia P 388; 1.25 mg/kg IP): 141%
- Median day of survival (leukemia P 388; 2.5 mg/kg IP): 16.1 days
- Variation by weight (leukemia P 388; 2.5 mg/kg IP): -1.2 g
- Number of survivors (leukemia P 388; 2.5 mg/kg IP): 0/10
- T/C % (leukemia P 388; 2.5 mg/kg IP): 147%
- Median day of survival (leukemia P 388; 5 mg/kg IP): 19.4 days
- Variation by weight (leukemia P 388; 5 mg/kg IP): -0.8 g
- Number of survivors (leukemia P 388; 5 mg/kg IP): 0/10
- T/C % (leukemia P 388; 5 mg/kg IP): 175%
- Median day of survival (leukemia P 388; 10 mg/kg IP): 12.0 days
- Variation by weight (leukemia P 388; 10 mg/kg IP): -1.1 g
- Number of survivors (leukemia P 388; 10 mg/kg IP): 0/10
- T/C % (leukemia P 388; 10 mg/kg IP): 108%
- IC50 [1]: 0.08 µM

Structure (SMILES): COc1ccc2c(c1)c1c(NCCCN(C)C)ncc(C)c1n2C.Cl.Cl [Derivative No. 13, 4,5-dimethyl-1-(3-dimethylaminopropylamino)-8-methoxy-5H-pyrido[4,3-b]indole dihydrochloride]
- Median day of survival (leukemia P 388; 5 mg/kg IP): 14.1 days
- Variation by weight (g) (leukemia P 388; 5 mg/kg IP): +1.0 g
- Number of survivors (leukemia P 388; 5 mg/kg IP): 0/10
- T/C % (leukemia P 388; 5 mg/kg IP): 134%
- Median day of survival (leukemia P 388; 10 mg/kg IP): 16.8 days
- Variation by weight (g) (leukemia P 388; 10 mg/kg IP): +1.2 g
- Number of survivors (leukemia P 388; 10 mg/kg IP): 0/10
- T/C % (leukemia P 388; 10 mg/kg IP): 160%
- Median day of survival (leukemia P 388; 20 mg/kg IP): 15.8 days
- Variation by weight (g) (leukemia P 388; 20 mg/kg IP): +0.4 g
- Number of survivors (leukemia P 388; 20 mg/kg IP): 0/10
- T/C % (leukemia P 388; 20 mg/kg IP): 150%
- Median day of survival (leukemia P 388; 40 mg/kg IP): 8.4 days
- Variation by weight (leukemia P 388; 40 mg/kg IP): -2.5 g
- Number of survivors (leukemia P 388; 40 mg/kg IP): 0/10
- T/C % (leukemia P 388; 40 mg/kg IP): 80%
- IC50 ([1]; Mus musculus, L1210, 48 h): 0.13 µM

Structure (SMILES): CCN(CC)CCCNc1ncc(C)c2c1c1ccccc1n2C [Derivative No. 16, 1-(3-diethylaminopropylamino)-4,5-dimethyl-5H-pyrido[4,3-b]indole dihydrochloride]
- IC50 ([1]; Mus musculus, L1210, 48 h): 0.72 µM

Structure (SMILES): CCN(CC)CCNc1ncc(C)c2c1c1cc(OC)ccc1n2C [Derivative No. 18, 1-(2-diethylaminoethylamino)-4,5-dimethyl-8-methoxy-5H-pyrido[4,3-b]indole dihydrochloride]
- IC50 ([1]; Mus musculus, L1210, 48 h): 1.2 µM

Structure (SMILES): CCN(CC)CCCCNc1ncc(C)c2c1c1cc(OC)ccc1n2C [Derivative No. 22, 1-(4-diethylaminobutylamino)-4,5-dimethyl-8-methoxy-5H-pyrido[4,3-b]indoledihydrochloride]
- IC50 ([1]; Mus musculus, L1210, 48 h): 1.3 µM

Structure (SMILES): CCN(CC)CCCCNc1ncc(C)c2c1c1cc(O)ccc1n2C [Derivative No. 23, 1-(4-diethylaminobutylamino)-4,5-dimethyl-8-hydroxy-5H-pyrido[4,3-b]indoledihydrochloride]
- IC50 ([1]; Mus musculus, L1210, 48 h): 0.31 µM
